In patent publication US8324188B2, “Combinations of ET-18-O-CH3and anti-cancer agents for the treatment of cancer” (priority 2006, dated 2012):
“And” between values parts separate entries of the source, which are not always exact repeats. Equal entries are not always repeated.

Experiments:
[1] = test system: LNCaP androgen-sensitive human prostate adenocarcinoma cells; assay: Apo-ONE Homogenous Caspase-3/7 Assay in LNCaP cells; type: cell-based
Method: FIG. 1. Depicts the in vitro effects of 1-O-octadecyl-2-O-methyl-glycero-3-phosphocholine (final concentration 10 μM), (ionizing) radiation (absorbed dose of 5 Gray units; indicated as “RT”), and a combination thereof on programmed cell death (apoptosis) and the survival rate of LNCaP androgen-sensitive human prostate adenocarcinoma cells. Apoptosis was determined using the Apo-ONE™ Homogenous Caspase-317 Assay, Promega, Inc., Madison, Wis., USA according to the manufacturers instructions. The percentage of living cancer cells was estimated by means of trypan blue dye exclusion as described (Freshney, R. I. (1994) Culture of Animal Cells: A Manual of Basic Technique. 3rd Ed. Wiley-Liss. New York. USA). The cells were exposed to radiation six hours after (FIG. 1A), concomitantly with (FIG. 1B), or six hours before administration of 1-O-octadecyl-2-O-methyl-glycero-3-phospho-choline (FIG. 1C). The caspase assay was performed 12 hours after exposure to radiation. The respective data shown represent the average of two independent experiments.
First, the in vitro effects of 1-O-octadecyl-2-O-methyl-glycero-3-phosphocholine, (ionizing) radiation, and a combination thereof on programmed cell death (apoptosis) and the survival rate of LNCaP androgen-sensitive human prostate adenocarcinoma cells were measured. The LNCaP cell line was established from a metastatic lesion of the adenocarcinoma. The cells were treated with a final concentration of 10 μM 1-O-octadecyl-2-O-methyl-glycero-3-phosphocholine and (ionizing) radiation corresponding to an absorbed dose of 5 Gray units.
Apoptosis was determined using the Apo-ONE™ Homogenous Caspase-3/7 Assay, Promega, Inc., Madison, VV1, USA according to the manufacturers instructions. The percentage of living tumor cells was estimated by means of trypan blue dye exclusion as described (Freshney, R. I. (1994) Culture of Animal Cells: A Manual of Basic Technique. 3rd Ed. Wiley-Liss. New York. USA)
The cells were exposed to radiation six hours after (FIG. 1A), concomitantly with (FIG. 1B), or six hours before administration of 1-O-octadecyl-2-O-methyl-glycero-3-phospho-choline (FIG. 1C). The caspase assay was performed 12 hours after exposure to radiation. The respective data shown represent the average of two independent experiments.
In a further approach, 10 μM 1-O-octadecyl-2-O-methyl-glycero-3-phosphocholine (final concentration; “CHEM”) and (ionizing) radiation (5 Gray units; “RT”) were administered simultaneously to the LNCaP cells but the subsequent incubation period was extended to 24 hours. Apoptosis was measured using the Apo-ONE™ Homogenous Caspase-3/7 Assay as described above and expressed as relative fluorescence units (RFLU). The percentage of apoptotic cells was determined by flow cytometric analysis of annexin V-PE positive-stained and 7-AAD (7-Amino ActinomycinD) negative-stained cells (both purchased from BD Biosciences, San Jose, Calif., USA) according to established standard protocols. The data represent means±SEM from three independent experiments.
Apoptosis was measured using the Apo-ONE™ Homogenous Caspase-3/7 Assay as described above and expressed as relative fluorescence units (RFLU). The percentage of apoptotic cells was determined via annexin V-PE/7-AAD staining as described above. The caspase-317 assay and annexin staining were performed 22 hours after CHEM treatment.

A549 (FAS negative) = assay: WST-1 proliferation assay, A549; type: cell-based, human; settings: single agent, per experiment line
Method: 2000 cells were plated in each well of 96-well flat bottom plates, and incubated overnight at 37 °C in 5% CO2. The growth of plated cells was measured by adding […] of WST-1 reagent (Roche Applied Sciences, Germany) to 3 control wells and measuring the absorbance at 650 nm and at 450 nm, respectively, with a SpectraMax250 plate reader. […] After this incubation, VVST-1 reagent was added to the wells and OD650-OD450 values were calculated as before. six wells were assayed for each conditions and standard deviation was determined: all experiments were performed at least three times independently. […] DDP and GMZ were both purchased from Sigma-aldrich Corp., St. Louis, Mo., USA. The following cell lines were used: A549 (FAS negative), NCI-H460 (FAS positive), and HCC827 (FAS positive), all obtained from the ATTC, Rockville, Md., USA.

CCCCCCCCCCCCCCCCCCOCC(COP(=O)([O-])OCC[N+](C)(C)C)OC (racemic) [AP-121, 1-O-octadecyl-2-O-methyl-glycero-3-phosphocholine]
increase in apoptotic response (caspase-3/7 assay) ([1]; 10 μM administered six hours prior to radiation (5 Gray), combined treatment (FIG. 1A)): > 2.5 fold | extent of apoptosis, increase in cells only exposed to the chemical as compared to the combined treatment ([1]; 10 μM, radiation six hours before (FIG. 1C)): about 25% | Caspase-3/7 activity (RFLU) ([1]; AD (androgen deprivation, two days) + 5 μM CHEM, AD alone 81): 126 RFLU | Caspase-3/7 activity (RFLU) ([1]; AD + 10 μM CHEM): 115 RFLU | Caspase-3/7 activity (RFLU) ([1]; AD + R1881 (two days prior) + 5 μM CHEM): 453 RFLU | Caspase-3/7 activity (RFLU) ([1]; AD + R1881 (two days prior) + 10 μM CHEM): 962 RFLU | Caspase-3/7 activity (RFLU) ([1]; CHEM 10 μM + RT 5 Gray simultaneously, 24 hours, means±SEM, p < 0.0001 vs CHEM and RT): 1514 ± 102 RFLU | Caspase-3/7 activity (RFLU) ([1]; CHEM 10 μM alone, 24 hours, means±SEM, three experiments, Control 193 ± 39): 580 ± 207 RFLU | Caspase-3/7 activity (RFLU) ([1]; Contr. + 5 μM CHEM, 22 hours after CHEM, Contr. 235): 380 RFLU | Caspase-3/7 activity (RFLU) ([1]; Contr. + 10 μM CHEM, 22 hours after CHEM): 436 RFLU | IC50 (A549 (FAS negative); A549): 6 µM and 6.9 µM | IC50 (A549 (FAS negative); Homo sapiens, A549, A549): 8 µM
